Data: PubChem BioAssay (NCI)
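Five compound concentrations were applied to cells in 96-well plates for 48 hours; endpoints were derived by simple linear interpolation of the resulting dose-response curve. The concentration for full growth arrest is given as TGI.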

system: HCT-116 colon; assay: inhibition of tumour cell growth, NCI panel, 48 h

SMILES	TGI
CCOC(=O)C1=C(Cl)c2cccnc2C1=O	> 100 µM
NC(=S)N/N=C1\CCCCc2ccccc21	> 10 µM
CC(C)OC(=O)C1=C2c3ncccc3C(=O)N2[C@@H](Cl)[C@H](Cl)[C@H]1Cl	> 100 µM
O=[N+]([O-])c1ccc2c(c1)Sc1ccccc1N2	> 100 µM
CC(C)(C)OC(=O)NCCc1ccc(N)cc1	> 100 µM

system: SR leukemia; assay: inhibition of tumour cell growth, NCI panel, 48 h

SMILES	TGI
CCOC(=O)C1=C(Cl)c2cccnc2C1=O	37.9 µM
NC(=S)N/N=C1\CCCCc2ccccc21	> 10 µM
CC(C)OC(=O)C1=C2c3ncccc3C(=O)N2[C@@H](Cl)[C@H](Cl)[C@H]1Cl	93.8 µM
O=[N+]([O-])c1ccc2c(c1)Sc1ccccc1N2	> 100 µM
CC(C)(C)OC(=O)NCCc1ccc(N)cc1	> 100 µM

system: UO-31 renal; assay: inhibition of tumour cell growth, NCI panel, 48 h

SMILES	TGI
CCOC(=O)C1=C(Cl)c2cccnc2C1=O	> 100 µM
NC(=S)N/N=C1\CCCCc2ccccc21	> 10 µM
CC(C)OC(=O)C1=C2c3ncccc3C(=O)N2[C@@H](Cl)[C@H](Cl)[C@H]1Cl	> 100 µM
O=[N+]([O-])c1ccc2c(c1)Sc1ccccc1N2	> 100 µM
CC(C)(C)OC(=O)NCCc1ccc(N)cc1	> 100 µM

system: CAKI-1 renal; assay: inhibition of tumour cell growth, NCI panel, 48 h

SMILES	TGI
CCOC(=O)C1=C(Cl)c2cccnc2C1=O	> 100 µM
NC(=S)N/N=C1\CCCCc2ccccc21	> 10 µM
CC(C)OC(=O)C1=C2c3ncccc3C(=O)N2[C@@H](Cl)[C@H](Cl)[C@H]1Cl	> 100 µM
O=[N+]([O-])c1ccc2c(c1)Sc1ccccc1N2	> 100 µM

system: HS 578T breast; assay: inhibition of tumour cell growth, NCI panel, 48 h

SMILES	TGI
CCOC(=O)C1=C(Cl)c2cccnc2C1=O	77 µM
CC(C)OC(=O)C1=C2c3ncccc3C(=O)N2[C@@H](Cl)[C@H](Cl)[C@H]1Cl	> 100 µM
O=[N+]([O-])c1ccc2c(c1)Sc1ccccc1N2	> 100 µM

system: SN12C renal; assay: inhibition of tumour cell growth, NCI panel, 48 h

SMILES	TGI
CCOC(=O)C1=C(Cl)c2cccnc2C1=O	> 100 µM
NC(=S)N/N=C1\CCCCc2ccccc21	> 10 µM
CC(C)OC(=O)C1=C2c3ncccc3C(=O)N2[C@@H](Cl)[C@H](Cl)[C@H]1Cl	85.9 µM
O=[N+]([O-])c1ccc2c(c1)Sc1ccccc1N2	> 100 µM

system: EKVX NSCLC; assay: inhibition of tumour cell growth, NCI panel, 48 h

SMILES	TGI
CCOC(=O)C1=C(Cl)c2cccnc2C1=O	> 100 µM
NC(=S)N/N=C1\CCCCc2ccccc21	> 10 µM
CC(C)OC(=O)C1=C2c3ncccc3C(=O)N2[C@@H](Cl)[C@H](Cl)[C@H]1Cl	> 100 µM
O=[N+]([O-])c1ccc2c(c1)Sc1ccccc1N2	> 100 µM
CC(C)(C)OC(=O)NCCc1ccc(N)cc1	> 100 µM

system: UACC-62 melanoma; assay: inhibition of tumour cell growth, NCI panel, 48 h

SMILES	TGI
CCOC(=O)C1=C(Cl)c2cccnc2C1=O	> 100 µM
CC(C)OC(=O)C1=C2c3ncccc3C(=O)N2[C@@H](Cl)[C@H](Cl)[C@H]1Cl	> 100 µM
CC(C)(C)OC(=O)NCCc1ccc(N)cc1	> 100 µM

system: MDA-N; assay: inhibition of tumour cell growth, NCI panel, 48 h

SMILES	TGI
CCOC(=O)C1=C(Cl)c2cccnc2C1=O	> 100 µM
NC(=S)N/N=C1\CCCCc2ccccc21	> 10 µM
CC(C)OC(=O)C1=C2c3ncccc3C(=O)N2[C@@H](Cl)[C@H](Cl)[C@H]1Cl	> 100 µM
O=[N+]([O-])c1ccc2c(c1)Sc1ccccc1N2	> 100 µM
CC(C)(C)OC(=O)NCCc1ccc(N)cc1	> 100 µM

system: SK-OV-3 ovarian; assay: inhibition of tumour cell growth, NCI panel, 48 h

SMILES	TGI
CCOC(=O)C1=C(Cl)c2cccnc2C1=O	> 100 µM

system: MOLT-4 leukemia; assay: inhibition of tumour cell growth, NCI panel, 48 h

SMILES	TGI
CCOC(=O)C1=C(Cl)c2cccnc2C1=O	> 100 µM
NC(=S)N/N=C1\CCCCc2ccccc21	> 10 µM
CC(C)OC(=O)C1=C2c3ncccc3C(=O)N2[C@@H](Cl)[C@H](Cl)[C@H]1Cl	> 100 µM
O=[N+]([O-])c1ccc2c(c1)Sc1ccccc1N2	> 100 µM
CC(C)(C)OC(=O)NCCc1ccc(N)cc1	> 100 µM

system: KM12 colon; assay: inhibition of tumour cell growth, NCI panel, 48 h

SMILES	TGI
CCOC(=O)C1=C(Cl)c2cccnc2C1=O	> 100 µM
NC(=S)N/N=C1\CCCCc2ccccc21	> 10 µM
CC(C)OC(=O)C1=C2c3ncccc3C(=O)N2[C@@H](Cl)[C@H](Cl)[C@H]1Cl	> 100 µM
O=[N+]([O-])c1ccc2c(c1)Sc1ccccc1N2	> 100 µM

system: OVCAR-3 ovarian; assay: inhibition of tumour cell growth, NCI panel, 48 h

SMILES	TGI
CCOC(=O)C1=C(Cl)c2cccnc2C1=O	43.7 µM
NC(=S)N/N=C1\CCCCc2ccccc21	> 10 µM
CC(C)OC(=O)C1=C2c3ncccc3C(=O)N2[C@@H](Cl)[C@H](Cl)[C@H]1Cl	> 100 µM
O=[N+]([O-])c1ccc2c(c1)Sc1ccccc1N2	> 100 µM
CC(C)(C)OC(=O)NCCc1ccc(N)cc1	> 100 µM

system: NCI/ADR-RES ovarian; assay: inhibition of tumour cell growth, NCI panel, 48 h

SMILES	TGI
CCOC(=O)C1=C(Cl)c2cccnc2C1=O	> 100 µM
NC(=S)N/N=C1\CCCCc2ccccc21	> 10 µM
CC(C)OC(=O)C1=C2c3ncccc3C(=O)N2[C@@H](Cl)[C@H](Cl)[C@H]1Cl	> 100 µM
O=[N+]([O-])c1ccc2c(c1)Sc1ccccc1N2	> 100 µM
CC(C)(C)OC(=O)NCCc1ccc(N)cc1	> 100 µM

system: BT-549 breast; assay: inhibition of tumour cell growth, NCI panel, 48 h

SMILES	TGI
CCOC(=O)C1=C(Cl)c2cccnc2C1=O	> 100 µM
NC(=S)N/N=C1\CCCCc2ccccc21	> 10 µM
CC(C)OC(=O)C1=C2c3ncccc3C(=O)N2[C@@H](Cl)[C@H](Cl)[C@H]1Cl	> 100 µM
O=[N+]([O-])c1ccc2c(c1)Sc1ccccc1N2	> 100 µM

system: ACHN renal; assay: inhibition of tumour cell growth, NCI panel, 48 h

SMILES	TGI
CCOC(=O)C1=C(Cl)c2cccnc2C1=O	> 100 µM
NC(=S)N/N=C1\CCCCc2ccccc21	> 10 µM
CC(C)OC(=O)C1=C2c3ncccc3C(=O)N2[C@@H](Cl)[C@H](Cl)[C@H]1Cl	> 100 µM
O=[N+]([O-])c1ccc2c(c1)Sc1ccccc1N2	> 100 µM
CC(C)(C)OC(=O)NCCc1ccc(N)cc1	> 100 µM

system: HCC-2998 colon; assay: inhibition of tumour cell growth, NCI panel, 48 h

SMILES	TGI
CCOC(=O)C1=C(Cl)c2cccnc2C1=O	> 100 µM
NC(=S)N/N=C1\CCCCc2ccccc21	> 10 µM
CC(C)OC(=O)C1=C2c3ncccc3C(=O)N2[C@@H](Cl)[C@H](Cl)[C@H]1Cl	> 100 µM
O=[N+]([O-])c1ccc2c(c1)Sc1ccccc1N2	> 100 µM
CC(C)(C)OC(=O)NCCc1ccc(N)cc1	> 100 µM

system: IGROV1 ovarian; assay: inhibition of tumour cell growth, NCI panel, 48 h

SMILES	TGI
CCOC(=O)C1=C(Cl)c2cccnc2C1=O	> 100 µM
CC(C)OC(=O)C1=C2c3ncccc3C(=O)N2[C@@H](Cl)[C@H](Cl)[C@H]1Cl	> 100 µM
O=[N+]([O-])c1ccc2c(c1)Sc1ccccc1N2	> 100 µM
CC(C)(C)OC(=O)NCCc1ccc(N)cc1	> 100 µM

system: SF-295 CNS; assay: inhibition of tumour cell growth, NCI panel, 48 h

SMILES	TGI
CCOC(=O)C1=C(Cl)c2cccnc2C1=O	> 100 µM
NC(=S)N/N=C1\CCCCc2ccccc21	> 10 µM
CC(C)OC(=O)C1=C2c3ncccc3C(=O)N2[C@@H](Cl)[C@H](Cl)[C@H]1Cl	> 100 µM
O=[N+]([O-])c1ccc2c(c1)Sc1ccccc1N2	> 100 µM
CC(C)(C)OC(=O)NCCc1ccc(N)cc1	> 100 µM

system: MCF7 breast; assay: inhibition of tumour cell growth, NCI panel, 48 h

SMILES	TGI
CCOC(=O)C1=C(Cl)c2cccnc2C1=O	> 100 µM
NC(=S)N/N=C1\CCCCc2ccccc21	> 10 µM
CC(C)OC(=O)C1=C2c3ncccc3C(=O)N2[C@@H](Cl)[C@H](Cl)[C@H]1Cl	> 100 µM
O=[N+]([O-])c1ccc2c(c1)Sc1ccccc1N2	> 100 µM
CC(C)(C)OC(=O)NCCc1ccc(N)cc1	> 100 µM

system: OVCAR-4 ovarian; assay: inhibition of tumour cell growth, NCI panel, 48 h

SMILES	TGI
CCOC(=O)C1=C(Cl)c2cccnc2C1=O	> 100 µM
NC(=S)N/N=C1\CCCCc2ccccc21	> 10 µM
CC(C)OC(=O)C1=C2c3ncccc3C(=O)N2[C@@H](Cl)[C@H](Cl)[C@H]1Cl	> 100 µM
O=[N+]([O-])c1ccc2c(c1)Sc1ccccc1N2	> 100 µM
CC(C)(C)OC(=O)NCCc1ccc(N)cc1	> 100 µM

system: SF-268 CNS; assay: inhibition of tumour cell growth, NCI panel, 48 h

SMILES	TGI
CCOC(=O)C1=C(Cl)c2cccnc2C1=O	> 100 µM
NC(=S)N/N=C1\CCCCc2ccccc21	> 10 µM
CC(C)OC(=O)C1=C2c3ncccc3C(=O)N2[C@@H](Cl)[C@H](Cl)[C@H]1Cl	> 100 µM
O=[N+]([O-])c1ccc2c(c1)Sc1ccccc1N2	> 100 µM
CC(C)(C)OC(=O)NCCc1ccc(N)cc1	> 100 µM

system: CCRF-CEM leukemia; assay: inhibition of tumour cell growth, NCI panel, 48 h

SMILES	TGI
CCOC(=O)C1=C(Cl)c2cccnc2C1=O	> 100 µM
NC(=S)N/N=C1\CCCCc2ccccc21	> 10 µM
O=[N+]([O-])c1ccc2c(c1)Sc1ccccc1N2	> 100 µM
CC(C)(C)OC(=O)NCCc1ccc(N)cc1	> 100 µM

system: MDA-MB-435; assay: inhibition of tumour cell growth, NCI panel, 48 h

SMILES	TGI
CCOC(=O)C1=C(Cl)c2cccnc2C1=O	64.7 µM
NC(=S)N/N=C1\CCCCc2ccccc21	> 10 µM
CC(C)OC(=O)C1=C2c3ncccc3C(=O)N2[C@@H](Cl)[C@H](Cl)[C@H]1Cl	> 100 µM
O=[N+]([O-])c1ccc2c(c1)Sc1ccccc1N2	> 100 µM
CC(C)(C)OC(=O)NCCc1ccc(N)cc1	> 100 µM

system: NCI-H23 lung; assay: inhibition of tumour cell growth, NCI panel, 48 h

SMILES	TGI
CCOC(=O)C1=C(Cl)c2cccnc2C1=O	31.6 µM
NC(=S)N/N=C1\CCCCc2ccccc21	> 10 µM
CC(C)OC(=O)C1=C2c3ncccc3C(=O)N2[C@@H](Cl)[C@H](Cl)[C@H]1Cl	> 100 µM
O=[N+]([O-])c1ccc2c(c1)Sc1ccccc1N2	> 100 µM

system: OVCAR-5 ovarian; assay: inhibition of tumour cell growth, NCI panel, 48 h

SMILES	TGI
NC(=S)N/N=C1\CCCCc2ccccc21	> 10 µM
CC(C)OC(=O)C1=C2c3ncccc3C(=O)N2[C@@H](Cl)[C@H](Cl)[C@H]1Cl	> 100 µM
O=[N+]([O-])c1ccc2c(c1)Sc1ccccc1N2	> 100 µM

system: SK-MEL-5 melanoma; assay: inhibition of tumour cell growth, NCI panel, 48 h

SMILES	TGI
CCOC(=O)C1=C(Cl)c2cccnc2C1=O	> 100 µM
CC(C)OC(=O)C1=C2c3ncccc3C(=O)N2[C@@H](Cl)[C@H](Cl)[C@H]1Cl	> 100 µM
O=[N+]([O-])c1ccc2c(c1)Sc1ccccc1N2	> 100 µM
CC(C)(C)OC(=O)NCCc1ccc(N)cc1	> 100 µM

system: A498 renal; assay: inhibition of tumour cell growth, NCI panel, 48 h

SMILES	TGI
CCOC(=O)C1=C(Cl)c2cccnc2C1=O	> 100 µM
CC(C)OC(=O)C1=C2c3ncccc3C(=O)N2[C@@H](Cl)[C@H](Cl)[C@H]1Cl	> 100 µM
O=[N+]([O-])c1ccc2c(c1)Sc1ccccc1N2	> 100 µM

system: SW-620 colon; assay: inhibition of tumour cell growth, NCI panel, 48 h

SMILES	TGI
CCOC(=O)C1=C(Cl)c2cccnc2C1=O	> 100 µM
NC(=S)N/N=C1\CCCCc2ccccc21	> 10 µM
CC(C)OC(=O)C1=C2c3ncccc3C(=O)N2[C@@H](Cl)[C@H](Cl)[C@H]1Cl	> 100 µM
O=[N+]([O-])c1ccc2c(c1)Sc1ccccc1N2	> 100 µM
CC(C)(C)OC(=O)NCCc1ccc(N)cc1	> 100 µM

system: K-562 leukemia; assay: inhibition of tumour cell growth, NCI panel, 48 h

SMILES	TGI
CCOC(=O)C1=C(Cl)c2cccnc2C1=O	> 100 µM
NC(=S)N/N=C1\CCCCc2ccccc21	> 10 µM
